Patent publication US11155523B2, “Biphenyl compound as CCR2/CCR5 receptor antagonist” (Medshine Discovery Inc., priority 2016, dated 2021)

Columns and labels:
CYP2C9 = molecular target: T1, CYP2C9 (Homo sapiens, UniProt P11712); assay: Inhibition of human liver microsomal CYP2C9 (diclofenac probe); format: in vitro ADME; conditions: human liver microsomes
T1 construct: from tissue; host or cells: human liver microsomes
Protocol: (§1) Experimental Example 4 Inhibition Effect on the Activity of Human Liver Microsomal Cytochrome P450 Isoezymes (CYP1A2, CYP2C9, CYP2C19, CYP2D6 and CYP3A4)
(§2) A total of 5 specific probe substrates for CYP's five isozymes, Phenacetin (CYP1A2), Diclofenac (CYP2C9), […] (S)-Mephenytoin, CYP2C19), Dextromethorphan (CYP2D6) and Midazolam (CYP3A4) were incubated with human liver microsomes and test compounds, respectively, and reduced nicotinamide adenine dinucleotide phosphate (NADPH) was added to initiate the reaction. After the reaction, the sample was processed and liquid chromatography tandem mass spectrometry (LC-MS/MS) was used to quantitatively detect the […] metabolites produced by the specific substrate, Acetaminophen and 4′-hydroxydiclofenac, 4′-hydroxymephenytoin, Dextrorphan and 1′-hydroxymidazolam, in order to calculate the corresponding half maximal inhibitory concentration (IC50).

CYP2C19 = molecular target: T2, CYP2C19 (Homo sapiens, UniProt P33261); assay: Inhibition of human liver microsomal CYP2C19 ((S)-mephenytoin probe); format: in vitro ADME; conditions: human liver microsomes
T2 construct: from tissue; host or cells: human liver microsomes
Protocol: as §1, §2

CYP1A2 = molecular target: T3, CYP1A2 (Homo sapiens, UniProt P05177); assay: Inhibition of human liver microsomal CYP1A2 (phenacetin probe); format: in vitro ADME; conditions: human liver microsomes
T3 construct: from tissue; host or cells: human liver microsomes
T3 sequence (P05177 1-516): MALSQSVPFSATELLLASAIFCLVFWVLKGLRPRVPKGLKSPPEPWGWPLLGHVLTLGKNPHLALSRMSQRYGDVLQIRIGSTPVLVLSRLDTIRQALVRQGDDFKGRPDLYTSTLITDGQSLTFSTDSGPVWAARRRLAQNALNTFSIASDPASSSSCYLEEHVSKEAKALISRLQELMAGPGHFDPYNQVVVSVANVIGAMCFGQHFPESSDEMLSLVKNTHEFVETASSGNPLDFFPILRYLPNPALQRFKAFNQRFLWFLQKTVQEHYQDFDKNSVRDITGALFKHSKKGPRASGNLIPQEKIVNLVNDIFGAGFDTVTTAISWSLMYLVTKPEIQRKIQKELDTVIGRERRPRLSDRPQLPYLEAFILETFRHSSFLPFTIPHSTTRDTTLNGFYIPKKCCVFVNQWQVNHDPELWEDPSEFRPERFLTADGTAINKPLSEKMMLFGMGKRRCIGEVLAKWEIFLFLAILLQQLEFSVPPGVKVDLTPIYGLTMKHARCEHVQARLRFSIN
Protocol: as §1, §2

CYP3A4 = molecular target: T4, CYP3A4 (Homo sapiens, UniProt P08684); assay: Inhibition of human liver microsomal CYP3A4 (midazolam probe); format: in vitro ADME; conditions: human liver microsomes
T4 construct: from tissue; host or cells: human liver microsomes
Protocol: as §1, §2

CYP2D6 = molecular target: T5, CYP2D6 (Homo sapiens, UniProt P10635); assay: Inhibition of human liver microsomal CYP2D6 (dextromethorphan probe); format: in vitro ADME; conditions: human liver microsomes
T5 construct: from tissue; host or cells: human liver microsomes
Protocol: as §1, §2

[1] = Comparative pharmacokinetics study in cynomolgus monkeys; format: in vivo; conditions: cynomolgus monkey
Text: Experimental Example 3: Comparative Pharmacokinetics Study in Cynomolgus Monkeys
Male cynomolgus monkeys were used as the test animals in this study. The drug concentrations in plasma of the cynomolgus monkeys by intravenous or oral administration of test compound WX047 and reference compound at different time points were quantitatively determined by LC/MS/MS, which were used to evaluate the pharmacokinetic profile of the two test drugs in cynomolgus monkeys.
A clear solution of the test compound was injected into cynomolgus monkeys via t the cephalic or saphenous vein (overnight fasting, 2.5-7 kg), and the test compound was intragastrically administered to the cynomolgus monkeys (overnight fasting, 7-10 weeks old). Approximately 400 μL of blood was collected from the peripheral vein of the animals 0.0833, 0.25, 0.5, 1, 2, 4, 6, 8, 12 and 24 hours after administration, and transferred into an commercial centrifuge tube containing EDTA-K2*2H2O anticoagulation. The plasma was collected by centrifugation at 3000 g for 10 minutes at 4° C. The plasma concentration was determined by LC-MS/MS. The pharmacokinetic parameters were calculated by the non-compartment model linear logarithmic trapezoidal method using WinNonlin™ Version 6.3 (Pharsight, Mountain View, Calif.) pharmacokinetic software.

[2] = Comparative pharmacokinetics study in rats; format: in vivo, SD male rats; conditions: rat; for clearance / half-life / bioavailability: male, Sprague-Dawley (SD), plasma; for clearance / half-life / Area Under a Curve (0-inf): intravenous injection 2 mg/kg; for bioavailability: oral 10 mg/kg vs intravenous 2 mg/kg; for Area Under a Curve (0-inf/0-last) / Peak time: oral 10 mg/kg; for Oral plasma system exposure (AUC0-inf) as multiple of the reference compound / Plasma clearance as percent of that of the reference compound: relative to Cenicriviroc
Protocol: Experimental Example 2: Comparative Pharmacokinetics Study in Rats
SD male rats were used as the test animals in this study. The drug concentrations in plasma of the rats by intravenous or oral administration of test compounds WX017, WX047, WX079, WX088 and reference compound at different time points were quantitatively determined by LC/MS/MS, which were used to evaluate the pharmacokinetic profile of the two test drugs in rats.
A clear solution of the test compound was injected into SD rats via the tail vein (overnight fasting, 7-10 weeks old), and the test compound was orally administered to the SD rats (overnight fasting, 7-10 weeks old). Approximately 200 μL of blood was collected from the jugular vein or tail vein of the animals 0.0833, 0.25, 0.5, 1, 2, 4, 6, 8 and 24 hours after administration, and was placed in an anticoagulant tube containing EDTA-K2. The plasma was collected by centrifugation at 3000 g for 15 minutes at 4° C. The plasma concentration was determined by LC-MS/MS. The pharmacokinetic parameters were calculated by the non-compartment model linear logarithmic trapezoidal method using WinNonlin™ Version 6.3 (Pharsight, Mountain View, Calif.) pharmacokinetic software.

CCR2 = molecular target: T6, CCR2 (Homo sapiens, UniProt P41597); assay: CCR2 in vitro test: intracellular calcium signal detected by FLIPR; format: cell-based; conditions: HEK293 cells expressing CCR2, agonist MCP-1 at EC80, calcium signal
T6 construct: expressed in transfected cells; host or cells: HEK293, clone C7, passage P6
Protocol: (§3) Experimental Example 1: CCR2/CCR5 In Vitro Test
(§4) The intracellular calcium signal was detected by FLIPR, and the IC50 value of the compound was used as an index to evaluate the inhibitory effect of the compound on CCR2 and CCR5 receptors.
(§5) 1. Cell line: The cells were inoculated and incubated in a 5% CO2 incubator at 37° C. overnight.
(§6) CCR2/CCR5 density: 1 M (20 k/well)
(§7) 2. Reagents: Fluo-4 Direct, (Invitrogen, Cat #F10471)
(§8) The compound was dissolved in DMSO to prepare a 10 mM solution, and the compound solution was placed in a nitrogen box.
(§9) Agonist reference compounds:
(§10) Preparation of probenecid in FLIPR assay buffer: 1 mL of FLIPR assay buffer was added to […] of probenecid to prepare a 250 mM solution, which is prepared fresh daily.
(§11) 2× (8 μM) Fluo-4 Direct™ Loading Buffer (per 10 mL) • Thaw a bottle of Fluo-4 Direct™ crystal (F10471). • Add 10 mL of FLIPR assay buffer to the vial. • Add 0.2 mL of probenecid to each 10 mL of Fluo-Direct. The final concentration of the assay was 2.5 mM. • Rotate it and place for >5 minutes (in absence of light). • Prepare fresh daily.
(§12) MCP-1 was diluted in FLIPR assay buffer 1:2 into 10 points, starting at 0.5 uM (final 100 nM). RANTES was diluted in FLIPR assay buffer 1:3 into 10 points, starting at 0.5 uM (final 100 nM). 20 uL of serially diluted compound buffer was added to each well of the DRC plate according to the compound plate map.
(§13) Standard compound was diluted in DMSO 1:3 into 11 points, starting at 1 mM. Test compound was diluted in DMSO 1:3 into 11 points, starting at 2 mM. 250 nL of compound solution was transferred into a cell plate using Echo (Greiner #781946).
(§14) (c) Take the cell plate out of the incubator, and gently dispense 20 uL of 2× Fluo-4 Direct wash-free loading buffer into a 384-well cell culture plate using a pipette. The final cell plate is 40 μL in volume.
(§15) (d) Incubate for 50 minutes at 37° C. under 5% CO2, and for 10 minutes at room temperature.
(§16) (e) Take the cell plate out of the incubator, and place it in FLIPR. Place the composite plate and the tip box in FLIPR.
(§17) (f) For DRC plate: • 1) Run the program on FLIPRTETRA. • 2) Read the fluorescent signal. • 3) Transfer 10 μL of compound from the DRC plate to the cell plate. • 4) Read the fluorescent signal. • 5) Calculate the “maximum−minimum” from Read 90 to the maximum allowed. Use FLIPR to calculate the EC80 value of each cell line. • 6) Prepare 5×EC80 concentration of the agonist reference compound.
(§18) (g) For the composite plate (1-add): • 1) Run the program on FLIPRTETRA. • 2) Transfer 10 μl, of 5×EC80 concentration of the agonist reference compound from the composite plate to the cell plate. • 3) Read the fluorescent signal. • 4) Calculate the “maximum−minimum” from Read 90 to the maximum allowed.
(§19) (h) Analyze the data using Prism, and calculate the IC50 value of the compound.

CCR5 = molecular target: T7, CCR5 (Homo sapiens, UniProt P51681); assay: CCR5 in vitro test: intracellular calcium signal detected by FLIPR; format: cell-based; conditions: HEK293 cells expressing CCR5, agonist RANTES at EC80, calcium signal
T7 construct: expressed in transfected cells; host or cells: HEK293, clone C13, passage P4
Protocol: as §3, §4, §5, §6, §7, §8, §9, §10, §11, §12, §13, §14, §15, §16, §17, §18, §19

[3] = male, plasma, intravenous injection 1 mg/kg

T6 sequence (P41597 whole entry, species assumed): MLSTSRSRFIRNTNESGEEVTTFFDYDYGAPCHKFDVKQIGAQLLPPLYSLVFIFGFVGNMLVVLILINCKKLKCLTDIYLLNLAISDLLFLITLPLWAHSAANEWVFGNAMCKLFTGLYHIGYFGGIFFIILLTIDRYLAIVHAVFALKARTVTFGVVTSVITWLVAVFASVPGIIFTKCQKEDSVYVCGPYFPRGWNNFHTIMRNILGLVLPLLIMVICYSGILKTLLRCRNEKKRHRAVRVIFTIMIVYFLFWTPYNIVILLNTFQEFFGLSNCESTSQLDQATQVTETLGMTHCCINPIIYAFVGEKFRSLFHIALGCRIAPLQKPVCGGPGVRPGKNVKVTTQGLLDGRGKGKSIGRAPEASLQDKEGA
T7 sequence (P51681 whole entry, species assumed): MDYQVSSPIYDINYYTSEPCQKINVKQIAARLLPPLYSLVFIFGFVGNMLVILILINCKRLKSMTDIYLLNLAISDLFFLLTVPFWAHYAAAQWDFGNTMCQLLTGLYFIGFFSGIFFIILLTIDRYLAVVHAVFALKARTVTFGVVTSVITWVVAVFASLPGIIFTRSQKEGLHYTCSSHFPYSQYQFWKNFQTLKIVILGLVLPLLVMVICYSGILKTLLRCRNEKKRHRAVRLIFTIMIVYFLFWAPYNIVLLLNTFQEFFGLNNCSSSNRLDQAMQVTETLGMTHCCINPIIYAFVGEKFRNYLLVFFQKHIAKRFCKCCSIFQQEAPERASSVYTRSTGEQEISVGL
T4 sequence (P08684 whole entry): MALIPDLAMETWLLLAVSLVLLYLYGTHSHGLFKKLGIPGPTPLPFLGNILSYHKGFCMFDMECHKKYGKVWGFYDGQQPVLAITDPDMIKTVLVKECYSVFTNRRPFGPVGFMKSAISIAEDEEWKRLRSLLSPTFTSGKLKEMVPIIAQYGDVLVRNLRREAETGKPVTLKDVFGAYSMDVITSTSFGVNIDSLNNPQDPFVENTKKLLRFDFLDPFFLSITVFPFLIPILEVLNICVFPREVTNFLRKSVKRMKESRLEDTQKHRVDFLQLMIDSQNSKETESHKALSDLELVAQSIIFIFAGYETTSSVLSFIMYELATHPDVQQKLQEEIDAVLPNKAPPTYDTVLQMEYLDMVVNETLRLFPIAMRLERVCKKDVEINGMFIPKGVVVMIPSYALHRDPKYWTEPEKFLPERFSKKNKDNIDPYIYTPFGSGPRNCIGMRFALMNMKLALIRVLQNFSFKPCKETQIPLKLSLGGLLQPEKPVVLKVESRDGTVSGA
T1 sequence (P11712 whole entry): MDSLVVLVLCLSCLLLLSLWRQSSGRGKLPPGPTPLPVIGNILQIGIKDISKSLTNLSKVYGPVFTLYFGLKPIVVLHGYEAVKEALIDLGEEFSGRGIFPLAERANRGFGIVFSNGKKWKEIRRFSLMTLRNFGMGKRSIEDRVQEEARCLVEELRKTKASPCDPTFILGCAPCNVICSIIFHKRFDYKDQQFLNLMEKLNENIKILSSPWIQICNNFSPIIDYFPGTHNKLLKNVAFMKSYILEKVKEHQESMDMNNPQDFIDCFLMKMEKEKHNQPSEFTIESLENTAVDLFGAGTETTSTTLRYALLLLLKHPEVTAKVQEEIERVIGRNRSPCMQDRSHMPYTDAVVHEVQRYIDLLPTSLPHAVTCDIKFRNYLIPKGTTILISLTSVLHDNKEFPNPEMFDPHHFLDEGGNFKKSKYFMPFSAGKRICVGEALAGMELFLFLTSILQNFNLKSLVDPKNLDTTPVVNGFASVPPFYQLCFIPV
T5 sequence (P10635 whole entry): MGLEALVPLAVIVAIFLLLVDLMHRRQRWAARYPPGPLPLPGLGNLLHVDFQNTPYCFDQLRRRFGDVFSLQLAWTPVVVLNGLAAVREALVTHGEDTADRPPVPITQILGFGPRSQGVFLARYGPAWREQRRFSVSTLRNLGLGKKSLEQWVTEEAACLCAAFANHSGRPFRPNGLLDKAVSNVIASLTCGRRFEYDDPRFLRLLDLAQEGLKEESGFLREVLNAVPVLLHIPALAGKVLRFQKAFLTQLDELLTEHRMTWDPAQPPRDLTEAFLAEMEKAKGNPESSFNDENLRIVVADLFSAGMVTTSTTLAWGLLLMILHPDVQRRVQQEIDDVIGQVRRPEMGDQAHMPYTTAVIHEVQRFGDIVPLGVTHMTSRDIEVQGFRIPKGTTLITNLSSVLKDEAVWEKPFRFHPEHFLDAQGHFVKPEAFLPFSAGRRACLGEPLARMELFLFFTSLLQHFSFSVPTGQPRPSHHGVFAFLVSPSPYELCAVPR
T2 sequence (P33261 whole entry): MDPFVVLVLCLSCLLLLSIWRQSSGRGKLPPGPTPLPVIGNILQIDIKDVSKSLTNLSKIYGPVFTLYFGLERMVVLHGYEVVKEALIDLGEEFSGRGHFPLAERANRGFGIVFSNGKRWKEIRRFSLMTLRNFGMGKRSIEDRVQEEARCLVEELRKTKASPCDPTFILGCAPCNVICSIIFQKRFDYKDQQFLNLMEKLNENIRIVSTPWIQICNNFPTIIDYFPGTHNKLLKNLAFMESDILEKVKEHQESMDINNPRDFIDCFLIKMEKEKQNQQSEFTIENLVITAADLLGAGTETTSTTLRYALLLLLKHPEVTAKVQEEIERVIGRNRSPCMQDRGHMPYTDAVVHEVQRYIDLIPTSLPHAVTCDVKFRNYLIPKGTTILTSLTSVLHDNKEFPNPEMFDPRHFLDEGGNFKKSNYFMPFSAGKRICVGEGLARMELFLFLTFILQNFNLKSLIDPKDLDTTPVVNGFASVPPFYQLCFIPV

| clearance [2] [mL/min/kg] | half-life [2] [h] | bioavailability [2] [%] | Area Under a Curve (0-inf) [2] [µM·h] | Area Under a Curve (0-inf/0-last) [2] [µM·h] | Peak time [2] [h] | IC50 (CCR2) [nM] | IC50 (CCR5) [nM] | SMILES | further results |
| --- | --- | --- | --- | --- | --- | --- | --- | --- | --- |
|  |  |  |  |  |  | 13 | 1.8 | CCCCOCCOc1ccc(-c2ccc(OC)c(/C=C/C(=O)Nc3ccc([S+]([O-])Cc4cnccc4CC)cc3)c2)cc1 (centres unmarked) [WX086] |  |
| 0.328 | 6.63 | 15.7 | 150.423 | 122.101 | 3.0 | 3.5 | 4.3 | CCCCOCCOc1ccc(-c2cc(F)c(OC)c(/C=C/C(=O)Nc3ccc([S@+]([O-])Cc4c(C)ncn4CC)cc3)c2)cc1 [WX088] | Oral plasma system exposure (AUC0-inf) as multiple of the reference compound [2]: 3.8 times; Plasma clearance as percent of that of the reference compound [2]: 21% |
|  |  |  |  |  |  | 5.5 | 6.9 | CCCCOCCOc1ccc(-c2cc(C)c(OC)c(/C=C/C(=O)Nc3ccc([S@+]([O-])Cc4c(C)ncn4CC)cc3)c2)cc1 [WX090] |  |
|  |  |  |  |  |  | 4.7 | 4.4 | CCCCOCCOc1ccc(-c2ccc(F)c(/C=C/C(=O)Nc3ccc([S@+]([O-])Cc4c(C)ncn4CC)cc3)c2)cc1 [WX091] |  |
|  |  |  |  |  |  | 3.9 | 10.1 | CCCCOCCOc1ccc(-c2cc(C)cc(/C=C/C(=O)Nc3ccc([S@+]([O-])Cc4c(C)ncn4CC)cc3)c2)cc1 [WX092] |  |

Second part, the compound before the results:

| SMILES | clearance [2] [mL/min/kg] | half-life [2] [h] | bioavailability [2] [%] | Area Under a Curve (0-inf) [2] [µM·h] | Area Under a Curve (0-inf/0-last) [2] [µM·h] | Peak time [2] [h] | IC50 (CCR2) [nM] | IC50 (CCR5) [nM] | further results |
| --- | --- | --- | --- | --- | --- | --- | --- | --- | --- |
| CCCCOCCOc1ccc(-c2ccc3c(c2)/C=C(/C(=O)Nc2ccc([S@@+]([O-])Cc4cncn4CCC)cc2)CCCN3CC(C)C)cc1 [(Cenicriviroc), Cenicriviroc, reference compound] | 1.57 | 5.48 | 20.4 | 31.344 | 31.956 | 4.0 |  |  | IC50 (CYP2C9): > 50000 nM; IC50 (CYP2C19): > 50000 nM; IC50 (CYP1A2): > 50000 nM; Inhibitory effect on CYP3A4 (conclusion in words) (CYP3A4): weak inhibitory effect; IC50 (CYP3A4; probe midazolam): 5600 nM; IC50 (CYP2D6): > 50000 nM; Area Under a Curve (0-inf) ([1]; intravenous injection 1 mg/kg): 2.766 µM·h; Area Under a Curve (0-inf/0-last) ([1]; oral 3 mg/kg): 0.424 µM·h; Peak time ([1]; oral 3 mg/kg): 2.0 h; clearance [1, 3]: 8.74 mL/min/kg; half-life [1, 3]: 5.37 h; bioavailability ([1]; male, plasma, oral 3 mg/kg vs intravenous 1 mg/kg): 5.11% |
| CCCCOCCOc1ccc(-c2ccc(OC)c(/C=C/C(=O)Nc3ccc([S@@+]([O-])Cc4cncn4CCC)cc3)c2)cc1 [WX017] | 0.4 | 3.69 | 48.9 | 135.732 | 331.778 | 1.5 | 13 | 7.9 | Oral plasma system exposure (AUC0-inf) as multiple of the reference compound [2]: 10.4 times; Plasma clearance as percent of that of the reference compound [2]: 25% |
| CCCCOCCOc1ccc(-c2ccc(OC(F)F)c(/C=C/C(=O)Nc3ccc([S@@+]([O-])Cc4c(C)ncn4CCC)cc3)c2)cc1 [WX082] |  |  |  |  |  |  | 53.4 | 11.4 |  |
| CCCCOCCOc1ccc(-c2ccc(OC)c(/C=C/C(=O)Nc3ccc([S@+]([O-])Cc4cncn4CCC)cc3)c2)cc1 [WX085] |  |  |  |  |  |  | 5.2 | 5.6 |  |
